# Measurements taken from patent US20230255953A1, “USE OF ROLUPERIDONE IN PREVENTING RELAPSE IN SCHIZOPHRENIA PATIENTS” (Minerva Neurosciences, Inc., priority 2022, published 2023).
# Tests used:
# [1] = system: cholinergic receptors; conditions: background statement; cited from earlier work
# [2] = system: patients with negative symptoms of schizophrenia; experiment: Study #1 (MIN-101C03): Brief Assessment of Cognition in Schizophrenia; format: in vivo, human; parameters: Change from Baseline LS Mean: Brief Assessment of Cognition in Schizophrenia Total Score / Change from Baseline LS Mean: Brief Assessment of Cognition in Schizophrenia Total Verbal Fluency: unit not given here; conditions: Week 12 DB, ITT
# Source text: (§1) Phase 2b Study #1 (also referred to herein as “MIN-101C03”) was a Phase 2b, double-blind (“DB”), placebo-controlled, randomized, multicenter 12-week study to evaluate the efficacy, safety, and tolerability of Roluperidone in patients ≥18 years to ≤60 years with negative symptoms of schizophrenia, followed by a 24-week open-label (“OL”) extension. The primary objective of the study was to evaluate the efficacy of Roluperidone compared to placebo in improving the negative symptoms of schizophrenia as measured by the change from Baseline in the PANSS negative factor score of the PSM (“PANSS PSM”) over 12 weeks of treatment.
# (§2) The study consisted of a pretreatment screening period of up to 28 days (including washout), a 12-week, DB, placebo-controlled period, and a 24-week OL period. Eligible patients (who were symptomatically stable for at least 3 months and had scores of at least 20 on the PANSS negative subscale score) were randomized in a 1:1:1 ratio to receive oral Roluperidone (a modified-release, “MR”, formulation) 32 mg QD, Roluperidone 64 mg QD, or placebo for 12 weeks. […] During the 24-week, OL treatment extension period, patients who were initially randomized to Roluperidone 32 mg or 64 mg continued on the same dose, while patients who were initially randomized to placebo crossed over to Roluperidone 32 mg or 64 mg in a 1:1 ratio.
# [3] = system: patients with negative symptoms of schizophrenia; experiment: Study #2 (MIN-101C07): Calgary Depression Scale for Schizophrenia; format: in vivo, human; conditions: Week 12 DB, ITT
# Source text: Study #2 (also referred to as “MIN101C07”) was a Phase 3, randomized, DB, placebo-controlled, parallel-group 12-week study to evaluate the efficacy and safety of Roluperidone in patients ≥18 years to ≤55 years with negative symptoms of schizophrenia, followed by a 40-week OL extension. The study consisted of a pretreatment screening period of up to 28 days (including an antipsychotic medication washout period), a 12-week, DB, placebo-controlled period, and a 40-week OL period. Eligible patients (with moderate to severe negative symptoms of schizophrenia and stable positive symptoms but without severe symptoms of suspiciousness, agitation, hostility, uncooperativeness, or poor impulse control) were randomized 1:1:1 to receive Roluperidone 32 mg QD, Roluperidone 64 mg QD (GR01/B formulation, see U.S. Pat. No. 11,464,744), or placebo, orally, for 12 weeks. […] During the 40-week OL treatment extension, patients who were initially randomized to Roluperidone 32 mg or 64 mg continued treatment with the same dose, while patients who were initially randomized to placebo crossed over to Roluperidone 32 mg or 64 mg in a 1:1 ratio.
# [4] = system: patients with negative symptoms of schizophrenia; experiment: Study #1 (MIN-101C03): safety and tolerability (TEAEs, QTcF); format: in vivo, human; conditions: for Patients with QTcF prolongation >500 msec and change from Baseline in QTcF >60 msec: DB period
# Source text: as §1, §2
# Clinically significant QTcF prolongation >500 msec and change from Baseline in QTcF>60 msec were reported in 2 patients of the 64 mg Roluperidone group, and in no patients in the 32 mg Roluperidone group or in the placebo group during the DB period of the study. The mean changes across all vital sign parameters were small from Baseline to the respective study visits in the DB period of the study.
# [5] = system: patients with negative symptoms of schizophrenia; experiment: Study #1 (MIN-101C03): CGI-S and CGI-I; format: in vivo, human; conditions: Week 12 DB, ITT
# Description: The CGI-S is a clinician-rated scale that is designed to rate the severity of the patient's illness at the time of assessment, including knowledge of the patient's history, psychosocial circumstances, symptoms, behavior, and the impact of the symptoms on the patient's ability to function relative to the clinician's past experience with patients who have the same diagnosis and similar improvement with treatment. Considering total clinical experience, a patient is assessed on severity of mental illness at the time of rating, where 1=normal (not at all ill); 2=borderline mentally ill; 3=mildly ill; 4=moderately ill; 5=markedly ill; 6=severely ill; or 7=extremely ill.
# The CGI-S and CGI-I were assessed at the timepoints described in Table 7. The CGI-S and CGI-I were exploratory endpoints in Studies MIN-101C03 and MIN-101C07.
# as §1, §2
substance,measurement,setting,value
"1H-Isoindol-1-one,2-[ [1-[2-(4-fluorophenyl)-2-oxoethyl]-4-piperidinyl]methyl]-2,3-dihydro-, hydrochloride, hydrate (1:1:2) [Roluperidone]",Affinity,[1],very low or no affinity
same,Change from Baseline LS Mean: Brief Assessment of Cognition in Schizophrenia Total Score,[2]; 32 mg QD,23.8
same,Change from Baseline LS Mean: Brief Assessment of Cognition in Schizophrenia Total Verbal Fluency,[2]; 32 mg QD,5.76
same,Effect Size vs Placebo: Brief Assessment of Cognition in Schizophrenia Total Score,[2]; 32 mg QD,0.43
same,Effect Size vs Placebo: Total Verbal Fluency,[2]; 32 mg QD,0.51
same,Change from Baseline LS Mean: Brief Assessment of Cognition in Schizophrenia Total Score,[2]; 64 mg QD,14.9
same,Change from Baseline LS Mean: Brief Assessment of Cognition in Schizophrenia Total Verbal Fluency,[2]; 64 mg QD,4.37
same,Effect Size vs Placebo: Brief Assessment of Cognition in Schizophrenia Total Score,[2]; 64 mg QD,0.12
same,Effect Size vs Placebo: Total Verbal Fluency,[2]; 64 mg QD,0.36
same,Change from Baseline LS Mean: Calgary Depression Scale for Schizophrenia,[3]; 32 mg QD,−0.2
same,Effect Size (Cohen's d) vs Placebo: Calgary Depression Scale for Schizophrenia,[3]; 32 mg QD,0.21
same,Change from Baseline LS Mean: Calgary Depression Scale for Schizophrenia,[3]; 64 mg QD,−0.1
same,Effect Size (Cohen's d) vs Placebo: Calgary Depression Scale for Schizophrenia,[3]; 64 mg QD,0.14
same,Patients with QTcF prolongation >500 msec and change from Baseline in QTcF >60 msec,[4]; 32 mg,no patients
same,Patients with QTcF prolongation >500 msec and change from Baseline in QTcF >60 msec,[4]; 64 mg,2 patients
same,"Tolerability (TEAEs, SAEs)","[4]; 32 and 64 mg, up to 36 weeks of treatment",generally well tolerated
same,QTcF prolongation >450 msec and QTcF increases relative to baseline of ≥30 msec,[4]; Roluperidone groups,dose-dependent manner
same,Change from Baseline: Clinical Global Impression of Severity (observed change),[5]; 32 mg QD,−0.40
same,Effect Size vs Placebo: Clinical Global Impression of Improvement,[5]; 32 mg QD,0.33
same,Effect Size vs Placebo: Clinical Global Impression of Severity,[5]; 32 mg QD,0.35
same,Change from Baseline: Clinical Global Impression of Severity (observed change),[5]; 64 mg QD,−0.40 (0.1)
same,Effect Size vs Placebo: Clinical Global Impression of Improvement,[5]; 64 mg QD,0.57
same,Effect Size vs Placebo: Clinical Global Impression of Severity,[5]; 64 mg QD,0.43
